# Patent US6461997B1, “Triazole sulfones having herbicidal activity” (Monsanto Technology LLC, priority 1999, dated 2002)
# Key:
# [1] = test system: AEGCY (jointed goatgrass); test: Post-emergence herbicidal activity, cool season; type: in vivo, Aegilops cylindrica; conditions: abraded plants sprayed at 300, 100, 30 and 10 g/ha; about 14 days after treatment
# Method: In another set of tests, the post-emergence activity of compounds of this invention was evaluated on the cool season species listed above. The following procedure was used.
# A pre-prepared topsoil mixture (described above) was placed in a pot and compacted to a depth of 1.0 to 1.25 cm from the top of the pot. Seeds of each of several monocotyledonous and dicotyledonous annual plant species were placed on top of the soil. The seeds were covered with a mixture of 50% topsoil and 50% Rediearth™ in sufficient quantity to level-fill the pots. The pots were then placed on a greenhouse bench and subirrigated as needed.
# When plants growing from the seeds had emerged and reached a suitable growth stage for post-emergence treatment, typically 9 to 14 days after planting, above-ground parts of the plants were subjected to a pre-treatment involving abrasion to create greater opportunity for foliar uptake of subsequently applied compounds. Abrasion was performed using garnet 200w particles applied with a Sears Craftsman hand-held sandblaster operated at approximately 850 kPa (50 psig) pressure.
# A known amount of each test compound dissolved or suspended in an appropriate organic solvent was diluted with a 50:50 mix of acetone and water and applied to the plants by spraying with a standard spray nozzle in a spray volume of […] at a spray pressure of 511 kPa (30 psig). Only the compounds of Examples 1, 8-15 and 17-22 were included in post-emergence tests. Application rates for these compounds were 300, 100, 30 and 10 g/ha. Control plants were abraded but not sprayed.
# After treatment the plants were placed in a greenhouse with an 18/13° C. day/night temperature regime and were subsequently watered as needed for growth. Approximately 14 days after treatment, the plants were observed and herbicidal efficacy recorded as percent inhibition by comparison with control plants. GR80 values were assigned for each compound as described above for the pre-emergence tests.
# [2] = test system: AMARE (redroot pigweed); test: Pre-plant incorporated (PPI) herbicidal activity, warm season; type: in vivo, Amaranthus retroflexus; conditions: for inhibition at 10 g/ha / inhibition at 30 g/ha / inhibition at 100 g/ha / inhibition at 300 g/ha / inhibition at 900 g/ha: Amaranthus retroflexus, read-out: Percent inhibition AMARE; for inhibition at 10 g/ha / inhibition at 30 g/ha / inhibition at 100 g/ha / inhibition at 300 g/ha / inhibition at 900 g/ha / Percent inhibition AMARE: PPI application; for PPI activity (GR80) AMARE: pre-plant incorporated, GR80 = lowest tested rate with 80% or greater inhibition, approx. 14 days after treating, 30/21° C.
# Method: (§1) In another set of tests, the pre-plant incorporated (PPI) activity of compounds of this invention was evaluated on the same species as for the pre-emergence tests described above. In the PPI tests the following procedure, designed to simulate PPI application, was used.
# (§2) A pre-prepared topsoil mixture (described above) was placed in a pot and compacted to a depth of 1.0 to 1.25 cm from the top of the pot. Seeds of each of several monocotyledonous and dicotyledonous annual plant species were placed on top of the soil. A sufficient quantity of soil to cover the seeds and level fill the pot was weighed into an open container. A known amount of the test compound was dissolved or suspended in an organic solvent and applied by spraying to this cover soil. The cover soil was thoroughly mixed to distribute the test compound throughout the cover soil, and was then applied as a cover layer over the seeds. Untreated soil was used as a cover layer for control pots. After treatment the plants were placed in a greenhouse where they received 0.64 cm of overhead irrigation. All subsequent watering consisted of a light overhead mist and/or subirrigation as needed for germination and growth. Tables 9 and 10 below relate to warm season plant species which were placed after pre-emergence treatment in a greenhouse with a 30/21° C. day/night temperature regime. Tables 11 and 12 below relates to cool season plant species placed after pre-emergence treatment in a greenhouse or growth chamber with an 18/13° C. day/night temperature regime. Only the compounds of Examples 1, 6, 8, 11, 13 and 15-20 were included in PPI tests.
# (§3) Approximately 14 days after planting and treating, the plants were observed and herbicidal efficacy recorded as percent inhibition by comparison with untreated plants.
# [3] = test system: oilseed rape (BRSNS); test: Selectivity test, PPI, cool season crop; type: in vivo, Brassica napus; conditions: PPI application; for inhibition at 30 g/ha / inhibition at 100 g/ha / inhibition at 300 g/ha / inhibition at 900 g/ha: Brassica napus, read-out: Percent inhibition BRSNS
# Method: as §2, §3
# (§4) Additional pre-emergence and PPI tests were conducted by the procedures described above, on warm and cool season weed species in the presence of crop species, to assess herbicidal selectivity. Crop species included in warm season tests were corn (Zea mays, ZEAMX), rice (Oryza sativa, ORYSA) and soybean (Glycine max, GLYMX). Crop species included in cool season tests were wheat (Triticum aestivum, TRZAW), barley (Hordeunm vulgare, HORVX) and oilseed rape (Brassica napus, BRSNS).
# (§5) Tables 15 and 16 relate to pre-emergence and PPI tests respectively on warm season species. Table 17 relates to pre-emergence tests on cool season species.
# [4] = test system: GALAP (catchweed bedstraw); test: Pre-plant incorporated (PPI) herbicidal activity, cool season; type: in vivo, Galium aparine; conditions: for inhibition at 30 g/ha / inhibition at 100 g/ha / inhibition at 300 g/ha / inhibition at 900 g/ha: Galium aparine, read-out: Percent inhibition GALAP; for inhibition at 30 g/ha / inhibition at 100 g/ha / inhibition at 300 g/ha / inhibition at 900 g/ha / Percent inhibition GALAP: weed, PPI application; for PPI activity GR80, GALAP: pre-plant incorporated, lowest tested rate with 80% or greater inhibition, about 14 days
# Method: as §1, §2, §3
# [5] = test system: POLCO (wild buckwheat); test: Pre-emergence herbicidal activity, cool season; type: in vivo, Polygonum convolvulus; conditions: lowest tested rate with 80% or greater inhibition; rates 300, 100, 30, 10 g/ha; about 14 days
# Method in brief: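 GR80 values derive from percent inhibition relative to untreated plants, read roughly 14 days after sowing and pre-emergence soil-surface treatment (compound in 50:50 acetone/water; rates typically 10, 30, 100, 300 g/ha). Warm-season weeds grew at 30/21° C day/night, cool-season ones at 18/13° C; an asterisk marks activity without reaching 80% at the highest rate.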
# [6] = test system: barley (HORVX); test: Selectivity test, PPI, cool season crop; type: in vivo, Hordeunm vulgare; conditions: PPI application; for inhibition at 30 g/ha / inhibition at 100 g/ha / inhibition at 300 g/ha / inhibition at 900 g/ha: Hordeum vulgare, read-out: Percent inhibition HORVX
# Method: as §2, §3, §4, §5
structure (smiles),measurement,setting,value
"CCN(CC)C(=O)n1cnc(S(=O)(=O)C(F)(F)Br)n1 [Example 1, 3-(bromodifluoromethylsulfonyl)-1-(N,N-diethylcarbamoyl)-1,2,4-triazole]","Post-emergence activity GR80, AEGCY",[1],[empty]
same,inhibition at 10 g/ha,[2]; 10 g/ha,0%
same,inhibition at 30 g/ha,[2]; 30 g/ha,60%
same,inhibition at 100 g/ha,[2]; 100 g/ha,80%
same,inhibition at 300 g/ha,[2]; 300 g/ha,100%
same,inhibition at 900 g/ha,[2]; 900 g/ha,100%
same,PPI activity (GR80) AMARE,[2],30 g/ha
same,inhibition at 30 g/ha,[3]; 30 g/ha,60%
same,inhibition at 100 g/ha,[3]; 100 g/ha,20%
same,inhibition at 300 g/ha,[3]; 300 g/ha,99%
same,inhibition at 900 g/ha,[3]; 900 g/ha,100%
same,inhibition at 30 g/ha,[4]; 30 g/ha,70%
same,inhibition at 100 g/ha,[4]; 100 g/ha,100%
same,inhibition at 300 g/ha,[4]; 300 g/ha,100%
same,inhibition at 900 g/ha,[4]; 900 g/ha,100%
same,"PPI activity GR80, GALAP",[4],100 g/ha
same,"Pre-emergence activity GR80, POLCO",[5],[empty]
same,inhibition at 30 g/ha,[6]; 30 g/ha,0%
same,inhibition at 100 g/ha,[6]; 100 g/ha,10%
same,inhibition at 300 g/ha,[6]; 300 g/ha,30%
same,inhibition at 900 g/ha,[6]; 900 g/ha,50%
"CCSC(F)(F)S(=O)(=O)c1ncn(C(=O)N(CC)CC)n1 [Example 8, 1-(N,N-diethylcarbamoyl)-3-[difluoro(ethylthio)methylsulfonyl]-1,2,4-triazole]","Post-emergence activity GR80, AEGCY",[1],[empty]
same,inhibition at 30 g/ha,[2]; 30 g/ha,100%
same,inhibition at 100 g/ha,[2]; 100 g/ha,100%
same,inhibition at 300 g/ha,[2]; 300 g/ha,100%
same,inhibition at 900 g/ha,[2]; 900 g/ha,100%
same,PPI activity (GR80) AMARE,[2],100 g/ha
same,inhibition at 30 g/ha,[3]; 30 g/ha,0%
same,inhibition at 100 g/ha,[3]; 100 g/ha,0%
same,inhibition at 300 g/ha,[3]; 300 g/ha,40%
same,inhibition at 900 g/ha,[3]; 900 g/ha,100%
same,inhibition at 30 g/ha,[4]; 30 g/ha,0%
same,inhibition at 100 g/ha,[4]; 100 g/ha,100%
same,inhibition at 300 g/ha,[4]; 300 g/ha,100%
same,inhibition at 900 g/ha,[4]; 900 g/ha,100%
same,"PPI activity GR80, GALAP",[4],100 g/ha
same,"Pre-emergence activity GR80, POLCO",[5],[empty]
same,inhibition at 30 g/ha,[6]; 30 g/ha,0%
same,inhibition at 100 g/ha,[6]; 100 g/ha,0%
same,inhibition at 300 g/ha,[6]; 300 g/ha,10%
same,inhibition at 900 g/ha,[6]; 900 g/ha,60%
CCN(CC)C(=O)n1cnc(S(=O)(=O)C(F)(F)SC)n1 [Example 9],"Post-emergence activity GR80, AEGCY",[1],[empty]
same,Percent inhibition AMARE,[2]; 30 g/ha,90%
same,Percent inhibition AMARE,[2]; 100 g/ha,100%
same,Percent inhibition AMARE,[2]; 300 g/ha,100%
same,Percent inhibition AMARE,[2]; 900 g/ha,100%
same,Percent inhibition BRSNS,[3]; 30 g/ha,50%
same,Percent inhibition BRSNS,[3]; 100 g/ha,95%
same,Percent inhibition BRSNS,[3]; 300 g/ha,100%
same,Percent inhibition BRSNS,[3]; 900 g/ha,100%
same,Percent inhibition GALAP,[4]; 30 g/ha,100%
same,Percent inhibition GALAP,[4]; 100 g/ha,70%
same,Percent inhibition GALAP,[4]; 300 g/ha,100%
same,Percent inhibition GALAP,[4]; 900 g/ha,100%
same,"Pre-emergence activity GR80, POLCO",[5],[empty]
same,Percent inhibition HORVX,[6]; 30 g/ha,0%
same,Percent inhibition HORVX,[6]; 100 g/ha,0%
same,Percent inhibition HORVX,[6]; 300 g/ha,10%
same,Percent inhibition HORVX,[6]; 900 g/ha,40%
CCN(CC)C(=O)n1cnc(S(=O)(=O)C(F)(F)C(F)(F)SC)n1 [Example 14],"Post-emergence activity GR80, AEGCY",[1],[empty]
same,"Pre-emergence activity GR80, POLCO",[5],300 g/ha
"CCN(CC)C(=O)n1cnc(S(=O)(=O)C(F)F)n1 [Example 15, 1-(N,N-diethylcarbamoyl)-3-(difluoromethylsulfonyl)-1,2,4-triazole]","Post-emergence activity GR80, AEGCY",[1],[empty]
same,inhibition at 10 g/ha,[2]; 10 g/ha,20%
same,inhibition at 30 g/ha,[2]; 30 g/ha,100%
same,inhibition at 100 g/ha,[2]; 100 g/ha,80%
same,inhibition at 300 g/ha,[2]; 300 g/ha,100%
same,inhibition at 900 g/ha,[2]; 900 g/ha,100%
same,PPI activity (GR80) AMARE,[2],100 g/ha
same,"PPI activity GR80, GALAP",[4],30 g/ha
CCN(CC)C(=O)n1cnc(S(=O)(=O)C(F)(F)C(F)F)n1 [Example 16],Percent inhibition AMARE,[2]; 10 g/ha,80%
same,Percent inhibition AMARE,[2]; 30 g/ha,100%
same,Percent inhibition AMARE,[2]; 100 g/ha,100%
same,Percent inhibition AMARE,[2]; 300 g/ha,100%
same,Percent inhibition AMARE,[2]; 900 g/ha,100%
same,PPI activity (GR80) AMARE,[2],10 g/ha
same,Percent inhibition BRSNS,[3]; 10 g/ha,0%
same,Percent inhibition BRSNS,[3]; 30 g/ha,0%
same,Percent inhibition BRSNS,[3]; 100 g/ha,0%
same,Percent inhibition BRSNS,[3]; 300 g/ha,30%
same,Percent inhibition BRSNS,[3]; 900 g/ha,75%
same,"PPI activity GR80, GALAP",[4],100 g/ha
same,Percent inhibition GALAP,[4]; 10 g/ha,0%
same,Percent inhibition GALAP,[4]; 30 g/ha,20%
same,Percent inhibition GALAP,[4]; 100 g/ha,100%
same,Percent inhibition GALAP,[4]; 300 g/ha,100%
same,Percent inhibition GALAP,[4]; 900 g/ha,100%
same,"Pre-emergence activity GR80, POLCO",[5],[empty]
same,Percent inhibition HORVX,[6]; 10 g/ha,0%
same,Percent inhibition HORVX,[6]; 30 g/ha,0%
same,Percent inhibition HORVX,[6]; 100 g/ha,10%
same,Percent inhibition HORVX,[6]; 300 g/ha,25%
same,Percent inhibition HORVX,[6]; 900 g/ha,20%
